This note sets out measurements from ChEMBL document CHEMBL1152264, “Diazen-1-ium-1,2-diolated nitric oxide donor ester prodrugs of 5-(4-hydroxymethylphenyl)-1-(4-aminosulfonylphenyl)-3-trifluoromethyl-1H-pyrazole and its methanesulfonyl analog: synthesis, biological evaluation and nitric oxide release studies” (Bioorg Med Chem, 2008).

Molecules are shown by their SMILES.

One data set relates to Rattus norvegicus. Nature of the data set: Antiinflammatory activity against po dosed carrageenan-induced rat foot paw edema after 3 hrs. The class given is functional. (Carrageenan injected into the paw causes an acute inflammation.)
Data set [1] is described as follows: Effect on nitric oxide release in phosphate buffer at pH 7.4 after 1.5 hrs in presence of rat serum. In kind it is ADME. Particulars: pH 7.4, 1.5 h.
Data set [2] in a line: Effect on nitric oxide release in phosphate buffer at pH 7.4 after 1.5 hrs. The class given is physicochemical. Particulars: pH 7.4, 1.5 h.
For data set [3], the target named is T1, Prostaglandin G/H synthase 1 (Ovis aries, UniProt P05979).
T1 sequence (P05979 whole entry): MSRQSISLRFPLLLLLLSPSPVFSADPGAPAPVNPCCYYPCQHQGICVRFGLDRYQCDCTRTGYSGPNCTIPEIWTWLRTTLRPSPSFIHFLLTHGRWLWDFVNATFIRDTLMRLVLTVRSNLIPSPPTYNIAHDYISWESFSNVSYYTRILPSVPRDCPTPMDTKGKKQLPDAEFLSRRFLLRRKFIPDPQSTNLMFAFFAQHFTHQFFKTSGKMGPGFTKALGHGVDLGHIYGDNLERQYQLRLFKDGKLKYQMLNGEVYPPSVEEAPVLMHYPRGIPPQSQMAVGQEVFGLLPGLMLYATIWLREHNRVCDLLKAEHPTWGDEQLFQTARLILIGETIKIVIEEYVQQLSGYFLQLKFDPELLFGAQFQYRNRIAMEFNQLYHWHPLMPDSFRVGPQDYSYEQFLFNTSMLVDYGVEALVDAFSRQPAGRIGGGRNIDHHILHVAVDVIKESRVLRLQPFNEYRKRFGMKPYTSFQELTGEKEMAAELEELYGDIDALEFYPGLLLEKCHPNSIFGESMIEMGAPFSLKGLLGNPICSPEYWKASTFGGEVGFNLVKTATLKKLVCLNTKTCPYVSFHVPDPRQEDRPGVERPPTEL
Description: Inhibition of ovine COX1 by enzyme immuno assay

Take `CC(=O)OCO/N=[N+](\[O-])N1CCC[C@H]1C(=O)OCc1ccc(-c2cc(C(F)(F)F)nn2-c2ccc(S(C)(=O)=O)cc2)cc1`: the ED50 with Rattus norvegicus came to 76.7 µmol/kg. Further, the Activity came out at 77% in data set [1] and 6.1% in data set [2].
Compound `NS(=O)(=O)c1ccc(-n2nc(C(F)(F)F)cc2-c2ccc(CO)cc2)cc1` [PRIMARY ALCOHOL METABOLITE OF CELECOXIB] returned an ED50 in the data set with Rattus norvegicus of 77.1 µmol/kg.
On the same count and under the same terms, with `CC(=O)Oc1ccccc1C(=O)O` [ASPIRIN] the figure was 710 µmol/kg.
Still for that read-out and setting: with `Cc1ccc(-c2cc(C(F)(F)F)nn2-c2ccc(S(N)(=O)=O)cc2)cc1` [CELECOXIB] the figure was 30.9 µmol/kg.
`CS(=O)(=O)c1ccc(-n2nc(C(F)(F)F)cc2-c2ccc(CO)cc2)cc1` returned an ED50 in the data set with Rattus norvegicus of 112 µmol/kg. The compound further came in with an IC50 in data set [3] of 8.6 µM.
The compound `CC(=O)OCO/N=[N+](\[O-])N1CCC[C@H]1C(=O)OCc1ccc(-c2cc(C(F)(F)F)nn2-c2ccc(S(N)(=O)=O)cc2)cc1` had an ED50 in the data set on Rattus norvegicus of 94.3 µmol/kg. Besides, the results for the Activity in data set [1] and in data set [2] were 76% and 8.2%, respectively. Also, the IC50 in data set [3] was greater than 100 µM.
Compound `CC(C)Cc1ccc(C(C)C(=O)O)cc1` (stereo not drawn) [IBUPROFEN] gave an ED50 with Rattus norvegicus of 327 µmol/kg.

Usually ED50 stands for the dose at which the effect has come halfway, by size or by number of responders. By IC50 is commonly meant the concentration that gives 50% inhibition. A low value points to inhibition by little substance.
